Test results: US20260060252A1, “HERBICIDAL COMBINATIONS” (UPL LTD, priority 2018, published 2026)

Assays:
Format in all cases: in vivo
Details in all cases: clomazone 32, metribuzin 12, sulfentrazone 7.7 Fl oz/A, combination 32 + 7.7 + 12 Fl oz/A
[1] = test system: Greenfox tail; assay: % control of Greenfox tail in Soybean
[2] = test system: Palmer amaranth; assay: % control of Palmer amaranth in Soybean
[3] = test system: Tall morning glory; assay: % control of Tall morning glory in Soybean

Structure (SMILES): CC1(C)CON(Cc2ccccc2Cl)C1=O [Clomazone]
- % control of Greenfox tail in Soybean, Actual ([1]; 14 DAA): 85%
- % control of Greenfox tail in Soybean, Actual ([1]; 28 DAA): 56.7%
- % control of Greenfox tail in Soybean, Actual ([1]; 45 DAA): 32.9%
- % control of Palmer amaranth in Soybean, Actual ([2]; 14 DAA): 60%
- % control of Palmer amaranth in Soybean, Actual ([2]; 28 DAA): 43.3%
- % control of Palmer amaranth in Soybean, Actual ([2]; 45 DAA): 16.4%
- % control of Tall morning glory in Soybean, Actual ([3]; 14 DAA): 53.3%
- % control of Tall morning glory in Soybean, Actual ([3]; 28 DAA): 30%
- % control of Tall morning glory in Soybean, Actual ([3]; 45 DAA): 13%

Structure (SMILES): Cc1nn(-c2cc(NS(C)(=O)=O)c(Cl)cc2Cl)c(=O)n1C(F)F [Sulfentrazone, N-[2,4-dichloro-5-[4-(difluoromethyl)-4,5-dihydro-3-methyl-5-oxo-1H-1,2,4-triazol-1-yl]phenyl]-methane sulfonamide]
- % control of Greenfox tail in Soybean, Actual ([1]; 14 DAA): 68.5%
- % control of Greenfox tail in Soybean, Actual ([1]; 28 DAA): 46.6%
- % control of Greenfox tail in Soybean, Actual ([1]; 45 DAA): 29.7%
- % control of Palmer amaranth in Soybean, Actual ([2]; 14 DAA): 80%
- % control of Palmer amaranth in Soybean, Actual ([2]; 28 DAA): 62%
- % control of Palmer amaranth in Soybean, Actual ([2]; 45 DAA): 39.4%
- % control of Tall morning glory in Soybean, Actual ([3]; 14 DAA): 66.7%
- % control of Tall morning glory in Soybean, Actual ([3]; 28 DAA): 42.8%
- % control of Tall morning glory in Soybean, Actual ([3]; 45 DAA): 22.5%

Structure (SMILES): CSc1nnc(C(C)(C)C)c(=O)n1N [Metribuzin, 4-amino-6-(1,1-dimethylethyl)-3-(methylthio)-1,2,4-triazin-5 (4H)-one]
- % control of Greenfox tail in Soybean, Actual ([1]; 14 DAA): 63.4%
- % control of Greenfox tail in Soybean, Actual ([1]; 28 DAA): 39.9%
- % control of Greenfox tail in Soybean, Actual ([1]; 45 DAA): 22.7%
- % control of Palmer amaranth in Soybean, Actual ([2]; 14 DAA): 65%
- % control of Palmer amaranth in Soybean, Actual ([2]; 28 DAA): 50%
- % control of Palmer amaranth in Soybean, Actual ([2]; 45 DAA): 36.1%
- % control of Tall morning glory in Soybean, Actual ([3]; 14 DAA): 53.3%
- % control of Tall morning glory in Soybean, Actual ([3]; 28 DAA): 39.6%
- % control of Tall morning glory in Soybean, Actual ([3]; 45 DAA): 16.4%
